Patent publication US20240124450A1, “Novel SIK Inhibitors” (Pfizer Inc., priority 2022, published 2024)
Where two headings read alike, the source gives them in different places.

Key:
SIK3 = SIK3 (Homo sapiens (Human), UniProt Q9Y2K2); test: Pan SIK MS IC50 enzyme assay (SIK3); assay type: biochemical; conditions: 1 mM ATP, substrate peptide AQT0508, LCMS/MS detection
Experimental: (§1) Enzyme Assay: Pan SIK MS IC50 Assay
(§2) Salt Induced Kinase (SIK) activity is determined by measuring the effect of a test agent on the activity of the appropriate SIK enzyme to phosphorylate its corresponding substrate. […] The phosphorylated substrate product resulting from the kinase reaction is detected by LCMS/MS, and the area under the peak curve correlates with kinase activity. […] The plates are spun at 1000 rpm for 30 seconds to ensure compounds are at the bottom of the well before removing foil covers. 0.15 μL HPE (assay std) and ZPE (DMSO) are added to the ARP using an HP D300 dispenser. Plates are spun again at 1000 rpm for 30 seconds. […] Plates are spun at 1000 rpm for 30 seconds. Plates are then sealed and incubated at RT for 10 minutes. Following incubation, 5 μL of 5× peptide reagent is added with a Multidrop Combi and designated small volume cassette to initiate the kinase reaction. Plates are spun at 1000 rpm for 30 seconds. Plates are then sealed and incubated at RT for 90 minutes. The assay is stopped by the addition of 5 μl of 120 mM EDTA added with a Multidrop Combi and designated small volume cassette (20 mM final concentration). Plates are spun at 1000 rpm for 30 seconds. 10 μl of the final reaction mix from each of the three individual enzyme plates are transferred by a Platemate Plus to the same corresponding 96 well deepwell plate containing 70 μl Water/Methanol (85/15%) for multiplex MS detection ([…]). Using Activity Base (ABase), an idbs data analysis software tool, the reported area ratio unit data is associated to compound, batch and dose information, the data is evaluated for quality, and the percent inhibition of each well is calculated. The data from each Max effect/HPE and Min effect/ZPE control wells are assessed, and outliers are excluded from all further calculations. The mean and standard deviation of the HPE and ZPE are then calculated for each plate, along with the Z Prime. The compound data is converted into % effect, using the average ZPE and HPE controls as 0% and 100% activity, respectively.

SIK1 = SIK1 (Homo sapiens (Human), UniProt P57059); test: Pan SIK MS IC50 enzyme assay (SIK1); assay type: biochemical; conditions: 1 mM ATP, substrate peptide AQT0868, LCMS/MS detection
SIK1, sequence (P57059 whole entry, species assumed): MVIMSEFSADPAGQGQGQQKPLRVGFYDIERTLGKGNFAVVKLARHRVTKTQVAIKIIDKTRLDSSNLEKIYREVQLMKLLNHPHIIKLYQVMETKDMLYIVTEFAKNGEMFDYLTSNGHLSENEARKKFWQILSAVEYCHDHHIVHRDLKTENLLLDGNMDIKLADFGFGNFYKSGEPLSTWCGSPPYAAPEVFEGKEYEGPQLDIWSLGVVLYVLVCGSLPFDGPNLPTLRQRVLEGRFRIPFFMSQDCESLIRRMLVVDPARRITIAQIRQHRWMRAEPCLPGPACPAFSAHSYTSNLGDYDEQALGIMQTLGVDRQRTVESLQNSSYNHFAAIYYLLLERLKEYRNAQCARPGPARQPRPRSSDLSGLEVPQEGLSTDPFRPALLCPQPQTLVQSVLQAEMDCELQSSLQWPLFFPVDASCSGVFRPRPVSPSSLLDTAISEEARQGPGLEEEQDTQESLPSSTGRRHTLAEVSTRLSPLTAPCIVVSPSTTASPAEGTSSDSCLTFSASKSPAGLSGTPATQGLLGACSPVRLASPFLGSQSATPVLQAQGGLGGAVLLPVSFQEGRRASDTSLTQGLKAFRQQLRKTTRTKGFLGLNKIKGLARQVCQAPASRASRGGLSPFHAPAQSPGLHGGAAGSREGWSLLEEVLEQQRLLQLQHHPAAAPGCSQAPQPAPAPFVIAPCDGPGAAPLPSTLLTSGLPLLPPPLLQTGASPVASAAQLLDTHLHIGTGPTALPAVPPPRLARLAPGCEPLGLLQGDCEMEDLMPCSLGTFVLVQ
Experimental: as §1, §2

[1] = tested on: TNFα release from human monocyte derived macrophages stimulated with LPS; test: SIK macrophage cytokine assay, inhibition of TNFα release; assay type: cell-based; conditions: 1 ng/mL LPS, 4 hours, HTRF, read-out: TNFa IC50
Experimental: (§3) Cytokine Assays: SIK Macrophage Assay Cytokine activity is determined by measuring the effect of a test agent on the inhibitory release of the cytokine TNFα and the increasing release of the cytokine IL10 from human monocyte derived macrophages (human macrophages) stimulated with lipopolysaccharide (LPS). At the time of assay, human macrophages (CGPS group Pfizer Groton, CT) are removed from cryopreservation, thawed quickly at 37° C., diluted in thaw medium (OptiMEM—Gibco medium, 10% heat inactivated fetal bovine serum (HIFBS)), and then centrifuged at 200×g for 10 minutes. […] After ˜60 minutes in an incubator at 37° C. in a humidified environment in 5% carbon dioxide the cells are stimulated by the addition of 5 μL of LPS (10 ng/mL; Sigma) and the assay plate is returned to an incubator at 37° C. in a humidified environment in 5% carbon dioxide for 4 hours. […] The final concentration of DMSO in the assay is approximately 0.1%. After 4 hours, the assay plate is removed from the incubator and centrifuged at 1500 rpm for 10 minutes. A portion of the resulting cell supernatant is then used to determine the amount of IL-10 and TNFα in each well. Cytokine measurements are made using human IL-10 and TNFα HTRF assay kits (Perkin Elmer) following the manufacturer's assay protocol.

SIK2 = SIK2 (Homo sapiens (Human), UniProt Q9H0K1); test: Pan SIK MS IC50 enzyme assay (SIK2); assay type: biochemical; conditions: 1 mM ATP, substrate peptide AQT0252, LCMS/MS detection
SIK2, sequence (Q9H0K1 whole entry, species assumed): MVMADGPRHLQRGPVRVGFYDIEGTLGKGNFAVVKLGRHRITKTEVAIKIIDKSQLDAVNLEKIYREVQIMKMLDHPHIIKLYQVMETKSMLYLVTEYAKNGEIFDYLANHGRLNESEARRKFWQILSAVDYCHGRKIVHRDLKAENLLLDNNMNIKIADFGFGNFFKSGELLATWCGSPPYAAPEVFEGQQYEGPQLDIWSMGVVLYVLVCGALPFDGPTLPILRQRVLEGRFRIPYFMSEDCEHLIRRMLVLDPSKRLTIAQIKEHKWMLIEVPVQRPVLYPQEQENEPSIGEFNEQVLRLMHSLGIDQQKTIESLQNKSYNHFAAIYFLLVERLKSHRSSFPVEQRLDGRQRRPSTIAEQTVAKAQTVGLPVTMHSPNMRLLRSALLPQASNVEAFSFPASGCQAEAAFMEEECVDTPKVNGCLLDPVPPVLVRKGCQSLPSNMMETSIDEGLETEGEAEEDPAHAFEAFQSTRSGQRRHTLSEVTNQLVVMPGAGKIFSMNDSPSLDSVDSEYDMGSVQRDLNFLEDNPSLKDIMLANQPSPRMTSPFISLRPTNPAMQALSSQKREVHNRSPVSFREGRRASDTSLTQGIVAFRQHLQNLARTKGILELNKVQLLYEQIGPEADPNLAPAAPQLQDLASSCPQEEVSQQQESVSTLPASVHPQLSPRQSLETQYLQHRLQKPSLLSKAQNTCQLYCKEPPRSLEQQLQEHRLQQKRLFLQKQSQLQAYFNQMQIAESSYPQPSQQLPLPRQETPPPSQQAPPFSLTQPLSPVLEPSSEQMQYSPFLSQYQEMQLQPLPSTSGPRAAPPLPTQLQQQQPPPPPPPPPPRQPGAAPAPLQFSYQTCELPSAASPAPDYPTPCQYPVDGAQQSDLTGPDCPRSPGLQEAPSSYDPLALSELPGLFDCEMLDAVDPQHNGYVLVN
Experimental: as §1, §2

[2] = tested on: IL10 release from human monocyte derived macrophages stimulated with LPS; test: SIK macrophage cytokine assay, increase of IL10 release; assay type: cell-based; conditions: 1 ng/mL LPS, 4 hours, HTRF
Experimental: as §3

SIK3, sequence (Q9Y2K2 whole entry, species assumed): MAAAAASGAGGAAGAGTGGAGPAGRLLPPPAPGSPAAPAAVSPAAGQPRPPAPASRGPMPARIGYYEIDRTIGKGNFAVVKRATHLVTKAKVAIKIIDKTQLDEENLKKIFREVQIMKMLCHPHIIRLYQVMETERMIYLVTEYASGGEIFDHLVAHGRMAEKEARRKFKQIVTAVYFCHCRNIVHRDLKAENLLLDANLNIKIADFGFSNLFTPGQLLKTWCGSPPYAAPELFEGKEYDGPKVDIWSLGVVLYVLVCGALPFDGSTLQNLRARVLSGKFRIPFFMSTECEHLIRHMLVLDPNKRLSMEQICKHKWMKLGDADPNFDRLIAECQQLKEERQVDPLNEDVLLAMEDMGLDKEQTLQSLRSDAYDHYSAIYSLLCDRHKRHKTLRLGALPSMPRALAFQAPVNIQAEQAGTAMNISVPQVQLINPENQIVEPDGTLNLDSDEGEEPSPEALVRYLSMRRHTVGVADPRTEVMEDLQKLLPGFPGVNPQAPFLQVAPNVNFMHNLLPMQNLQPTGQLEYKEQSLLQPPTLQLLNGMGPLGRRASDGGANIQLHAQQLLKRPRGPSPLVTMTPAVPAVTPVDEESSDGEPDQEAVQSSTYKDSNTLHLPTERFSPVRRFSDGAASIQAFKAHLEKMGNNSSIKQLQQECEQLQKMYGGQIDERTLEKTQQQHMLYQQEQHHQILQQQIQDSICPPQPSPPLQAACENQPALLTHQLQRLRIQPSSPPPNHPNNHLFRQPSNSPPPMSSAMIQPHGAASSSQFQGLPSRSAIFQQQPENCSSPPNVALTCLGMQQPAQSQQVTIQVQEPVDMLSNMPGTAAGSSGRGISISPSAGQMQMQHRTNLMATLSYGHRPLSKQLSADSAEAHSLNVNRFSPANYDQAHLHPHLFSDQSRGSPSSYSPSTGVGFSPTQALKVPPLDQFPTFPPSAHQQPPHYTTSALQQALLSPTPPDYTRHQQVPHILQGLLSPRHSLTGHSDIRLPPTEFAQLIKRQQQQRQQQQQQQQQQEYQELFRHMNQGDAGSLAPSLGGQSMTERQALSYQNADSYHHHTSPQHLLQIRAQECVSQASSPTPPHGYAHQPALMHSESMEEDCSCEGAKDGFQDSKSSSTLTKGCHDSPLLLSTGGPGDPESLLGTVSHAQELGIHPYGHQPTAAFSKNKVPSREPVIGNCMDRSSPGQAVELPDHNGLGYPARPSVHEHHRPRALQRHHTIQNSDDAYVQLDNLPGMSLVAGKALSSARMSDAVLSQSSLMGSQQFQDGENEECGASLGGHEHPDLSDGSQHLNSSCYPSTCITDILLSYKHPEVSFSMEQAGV

| Compound | IC50 (SIK3) [nM] | IC50 (SIK1) [nM] | IC50 ([1]; Macrophage) [nM] | IC50 (SIK2) [nM] | EC50 ([2]; Macrophage) [nM] | IC50 [1] [nM] | EC50 [2] [nM] |
| --- | --- | --- | --- | --- | --- | --- | --- |
| COc1cc(C#N)n2c(-c3cc(OCC4(N)CCCCC4)c(C#N)c(SC)c3)cnc2c1 [Example 51, 3-(3-((1-Aminocyclohexyl)methoxy)-4-cyano-5-(methylthio)phenyl)-7-methoxyimidazo[1,2-a]pyridine-5-carbonitrile] | 1.6 | 1.5 | 5.7 | 0.5 | 26 | – | – |
| CSc1cc(-c2cnc3cc(C)cc(C#N)n23)cc(OCC2(N)CCCC2)c1C#N [Example 41, 3-(3-((1-Aminocyclopentyl)methoxy)-4-cyano-5-(methylthio)phenyl)-7-methylimidazo[1,2-a]pyridine-5-carbonitrile] | 0.7 | 1.9 | 5.3 | 0.8 | 54 | – | – |
| CSc1cc(-c2cnc3cccc(C#N)n23)cc(OCC2(N)CCCC2)c1C#N [Example 36, 3-(3-((1-Aminocyclopentyl)methoxy)-4-cyano-5-(methylthio)phenyl)imidazo[1,2-a]pyridine-5-carbonitrile] | 2.1 | 1.2 | 4.8 | 0.8 | 35 | – | – |
| CC[C@H]1CCC[C@@](N)(COc2cc(-c3cnc4cccc(C#N)n34)cc(SC)c2C#N)C1 (racemic) [Example 18, 3-(3-(((1S,3S)-1-Amino-3-ethylcyclohexyl)methoxy)-4-cyano-5-(methylthio)phenyl)imidazo[1,2-a]pyridine-5-carbonitrile and 3-(3-(((1R,3R)-1-amino-3-ethylcyclohexyl)methoxy)-4-cyano-5-(methylthio)phenyl)imidazo[1,2-a]pyridine-5-carbonitrile] | 1 | 0.1 | 1.1 | 0.6 | 5 | – | – |
| COc1ccc2ncc(-c3cc(OCC4(N)CCCCC4)c(C#N)c(SC)c3)n2c1C#N [Example 49, 3-(3-((1-Aminocyclohexyl)methoxy)-4-cyano-5-(methylthio)phenyl)-6-methoxyimidazo[1,2-a]pyridine-5-carbonitrile] | 2.4 | 0.9 | 6.5 | 0.7 | 18 | – | – |
| CSc1cc(-c2cnc3ccc(C)c(C#N)n23)cc(OCC2(N)CCCC2)c1C#N [Example 40, 3-(3-((1-Aminocyclopentyl)methoxy)-4-cyano-5-(methylthio)phenyl)-6-methylimidazo[1,2-a]pyridine-5-carbonitrile] | 1.6 | 0.4 | 6.1 | 0.6 | 17 | – | – |
| CCOC(=O)c1cc(C#N)n2c(-c3cc(OCC4(N)CCCC4)c(C#N)c(SC)c3)cnc2c1 [Example 38, Ethyl 3-(3-((1-aminocyclopentyl)methoxy)-4-cyano-5-(methylthio)phenyl)-5-cyanoimidazo[1,2-a]pyridine-7-carboxylate] | 1.8 | 1.5 | 20.1 | 1 | 51 | – | – |
| CC[C@@H]1CCC[C@](N)(COc2cc(-c3cnc4cccc(OC)n34)cc(OC)c2C#N)C1 [Example 16, 2-(((1R,3R)-1-Amino-3-ethylcyclohexyl)methoxy)-6-methoxy-4-(5-methoxyimidazo[1,2-a]pyridin-3-yl)benzonitrile and 2-(((16,36)-1-Amino-3-ethylcyclohexyl)methoxy)-6-methoxy-4-(5-methoxyimidazo[1,2-a]pyridin-3-yl)benzonitrile] | – | – | 4.8 | – | 14 | – | – |
| CSc1cc(-c2cnc3ccc(N4CCC4)c(C#N)n23)cc(OCC2(N)CCCC2)c1C#N [Example 46, 3-(3-((1-Aminocyclopentyl)methoxy)-4-cyano-5-(methylthio)phenyl)-6-(azetidin-1-yl)imidazo[1,2-a]pyridine-5-carbonitrile] | 2.8 | 0.8 | 6.9 | 1.5 | 28 | – | – |
| COc1cccc2ncc(-c3cc(OCC4(N)CCCC4)c(C#N)c(SC)c3)n12 [Example 1, 2-((1-Aminocyclopentyl)methoxy)-4-(5-methoxyimidazo[1,2-a]pyridin-3-yl)-6-(methylthio)benzonitrile] | 7.5 | 2.5 | 26.4 | 2.2 | 109 | – | – |
| CSc1cc(-c2cnc3ccc(N(C)C)c(C#N)n23)cc(OCC2(N)CCCC2)c1C#N [Example 43, 3-(3-((1-Aminocyclopentyl)methoxy)-4-cyano-5-(methylthio)phenyl)-6-(dimethylamino)imidazo[1,2-a]pyridine-5-carbonitrile] | 1.1 | 0.2 | 0.6 | 0.4 | 2 | – | – |
| 3-(3-((1-Aminocyclopentyl)methoxy)-4-cyano-5-(methylthio)phenyl)pyrazolo[1,5-a]pyridine-4-carbonitrile [Example 37] | 0.9 | 0.3 | – | 0.4 | – | 3.9 | 27 |
| CSc1cc(-c2cnc3cccc(C#N)n23)cc(OC[C@@]2(N)CCCC(C)(C)C2)c1C#N (mixture of isomers) [Example 14, (R)-3-(3-((1-Amino-3,3-dimethylcyclohexyl)methoxy)-4-cyano-5-(methylthio)phenyl)imidazo[1,2-a]pyridine-5-carbonitrile and (S)-3-(3-((1-amino-3,3-dimethylcyclohexyl)methoxy)-4-cyano-5-(methylthio)phenyl)imidazo[1,2-a]pyridine-5-carbonitrile] | 1.2 | 0.6 | 13.7 | 1.5 | 45 | – | – |
| CSc1cc(-c2cnc3cccc(C#N)n23)cc(OC[C@@]2(N)CCC(F)(F)C2)c1C#N (mixture of isomers) [Example 12, (R)-3-(3-((1-Amino-3,3-difluorocyclopentyl)methoxy)-4-cyano-5-(methylthio)phenyl)imidazo[1,2-a]pyridine-5-carbonitrile and (S)-3-(3-((1-amino-3,3-difluorocyclopentyl)methoxy)-4-cyano-5-(methylthio)phenyl)imidazo[1,2-a]pyridine-5-carbonitrile] | – | – | 20.1 | – | 67 | – | – |
| CC[C@@H]1CCC[C@@]1(N)COc1cc(-c2cnc3cccc(OC)n23)cc(OC)c1C#N [Example 2A, 2-(((1S,2R)-1-Amino-2-ethylcyclopentyl)methoxy)-6-methoxy-4-(5-methoxyimidazo[1,2-a]pyridin-3-yl)benzonitrile] | 2 | 0.5 | 5.2 | 0.6 | 21 | – | – |
| CC[C@@H]1CCC[C@@]1(N)COc1cc(-c2cnc3cccc(OC)n23)cc(SC)c1C#N (mixture of isomers) [Example 9, 2-(((1S,2R)-1-Amino-2-ethylcyclopentyl)methoxy)-4-(5-methoxyimidazo[1,2-a]pyridin-3-yl)-6-(methylthio)benzonitrile and 2-(((1R,2S)-1-amino-2-ethylcyclopentyl)methoxy)-4-(5-methoxyimidazo[1,2-a]pyridin-3-yl)-6-(methylthio)benzonitrile] | – | – | 5.3 | – | 12 | – | – |
